Results from the supplement of paper PMC10307832.

Tests used:
Assay in all cases: relative viability (nuclei count vs DMSO), 5 days (fraction); higher = more cells survive
Tipifarnib + Pictilisib = compound: Cn1cncc1[C@@](N)(c1ccc(Cl)cc1)c1ccc2c(c1)c(-c1cccc(Cl)c1)cc(=O)n2C [Tipifarnib] + CS(=O)(=O)N1CCN(Cc2cc3nc(-c4cccc5[nH]ncc45)nc(N4CCOCC4)c3s2)CC1 [Pictilisib] (partner 1 µM)
In short: (§1)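 Relative viability divides the nuclei count in treated wells by that in vehicle wells. Lung cancer cell lines were seeded in 1536-well plates, dosed by pin tool the next day, and fixed and stained after 5 days in one step with final 0.05% Triton X-100, 1% formaldehyde and 1 ug/ml Hoechst. Dosing was a single drug or a fixed anchor-drug dose plus five library-drug doses (not always all listed) in √10 steps, and values are medians of duplicate plates imaged at 4×.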

Tipifarnib + Phenformin = compound: Cn1cncc1[C@@](N)(c1ccc(Cl)cc1)c1ccc2c(c1)c(-c1cccc(Cl)c1)cc(=O)n2C [Tipifarnib] + N=C(N)NC(=N)NCCc1ccccc1 [Phenformin] (partner 250 µM)
In short: as §1

Tipifarnib + Palbociclib = compound: Cn1cncc1[C@@](N)(c1ccc(Cl)cc1)c1ccc2c(c1)c(-c1cccc(Cl)c1)cc(=O)n2C [Tipifarnib] + CC(=O)c1c(C)c2cnc(Nc3ccc(N4CCNCC4)cn3)nc2n(C2CCCC2)c1=O [Palbociclib] (partner 0.5 µM)
In short: as §1

Tipifarnib + Decitabine = compound: Cn1cncc1[C@@](N)(c1ccc(Cl)cc1)c1ccc2c(c1)c(-c1cccc(Cl)c1)cc(=O)n2C [Tipifarnib] + Nc1ncn([C@H]2C[C@H](O)[C@@H](CO)O2)c(=O)n1 [Decitabine] (partner 2 µM)
In short: as §1

| Cell Line | relative viability (Tipifarnib + Pictilisib; first compound 0.01 µM) | relative viability (Tipifarnib + Pictilisib; first compound 0.03162 µM) | relative viability (Tipifarnib + Pictilisib; first compound 0.1 µM) | relative viability (Tipifarnib + Pictilisib; first compound 0.3162 µM) | relative viability (Tipifarnib + Pictilisib; first compound 1 µM) | relative viability (Tipifarnib + Phenformin; first compound 0.01 µM) | relative viability (Tipifarnib + Phenformin; first compound 0.03162 µM) | relative viability (Tipifarnib + Phenformin; first compound 0.1 µM) | relative viability (Tipifarnib + Phenformin; first compound 0.3162 µM) | relative viability (Tipifarnib + Phenformin; first compound 1 µM) | relative viability (Tipifarnib + Palbociclib; first compound 0.01 µM) | relative viability (Tipifarnib + Palbociclib; first compound 0.03162 µM) | relative viability (Tipifarnib + Palbociclib; first compound 0.1 µM) | relative viability (Tipifarnib + Palbociclib; first compound 0.3162 µM) | relative viability (Tipifarnib + Palbociclib; first compound 1 µM) | relative viability (Tipifarnib + Decitabine; first compound 0.01 µM) | relative viability (Tipifarnib + Decitabine; first compound 0.03162 µM) | relative viability (Tipifarnib + Decitabine; first compound 0.1 µM) | relative viability (Tipifarnib + Decitabine; first compound 0.3162 µM) | relative viability (Tipifarnib + Decitabine; first compound 1 µM) |
| --- | --- | --- | --- | --- | --- | --- | --- | --- | --- | --- | --- | --- | --- | --- | --- | --- | --- | --- | --- | --- |
| NCI-H1993 | 0.686 | 0.812 | 0.861 | 0.888 | 0.913 | 0.414 | 0.508 | 0.529 | 0.518 | 0.559 | 0.604 | 0.531 | 0.431 | 0.463 | 0.413 | 0.666 | 0.551 | 0.579 | 0.528 | 0.545 |
| NCI-H838 | 0.404 | 0.368 | 0.324 | 0.3 | 0.279 | 0.547 | 0.504 | 0.421 | 0.44 | 0.389 | 0.223 | 0.206 | 0.214 | 0.187 | 0.195 | 0.466 | 0.452 | 0.46 | 0.413 | 0.38 |
| NCI-H1437 | 0.457 | 0.466 | 0.45 | 0.343 | 0.212 | 0.266 | 0.315 | 0.296 | 0.218 | 0.228 | 0.327 | 0.357 | 0.336 | 0.288 | 0.303 | 0.597 | 0.618 | 0.613 | 0.635 | 0.593 |
| NCI-H2170 | 0.317 | 0.291 | 0.295 | 0.278 | 0.222 | 0.439 | 0.418 | 0.389 | 0.379 | 0.343 | 0.362 | 0.377 | 0.305 | 0.246 | 0.27 | 0.533 | 0.441 | 0.465 | 0.43 | 0.412 |
| NCI-H1648 | – | – | – | – | – | – | – | – | – | – | 0.253 | 0.304 | 0.279 | 0.285 | 0.45 | 0.603 | 0.48 | 0.608 | 0.51 | 0.338 |
| SW 900 | – | – | – | – | – | 0.405 | 0.216 | 0.365 | 0.244 | 0.207 | 0.454 | 0.415 | 0.347 | 0.332 | 0.354 | 0.387 | 0.39 | 0.294 | 0.368 | 0.402 |
| NCI-H596 | 0.392 | 0.365 | 0.354 | 0.373 | 0.312 | 0.801 | 0.745 | 0.663 | 0.574 | 0.658 | – | – | – | – | – | 0.96 | 0.918 | 0.963 | 0.558 | 0.824 |
| IA-LM | 0.133 | 0.121 | 0.136 | 0.114 | 0.114 | – | – | – | – | – | – | – | – | – | – | – | – | – | – | – |
| NCI-H1563 | 0.669 | 0.64 | 0.655 | 0.628 | 0.589 | 0.631 | 0.696 | 0.655 | 0.637 | 0.577 | – | – | – | – | – | – | – | – | – | – |
| NCI-H522 | – | – | – | – | – | 0.617 | 0.698 | 0.65 | 0.599 | 0.563 | 0.9 | 1.2 | 1.07 | 0.898 | 0.923 | 0.657 | 0.725 | 0.582 | 0.586 | 0.592 |
| CAL-12T | 0.388 | 0.329 | 0.384 | 0.414 | 0.32 | 0.533 | 0.414 | 0.379 | 0.378 | 0.231 | 0.512 | 0.302 | 0.377 | 0.21 | 0.13 | – | – | – | – | – |
